Test results as given in patent US8778953B2, “Inhibitors of P38 map kinase” (Chroma Therapeutics Ltd., priority 2008, dated 2014).
pIC50: −log10 of the molar value. Read-outs that look alike come from different tables or passages of the source.

Key:
[1] = tested on: U937 cells; assay: Cell accumulation of the acid in U937 cells; type: cell-based; settings: U937 monocytic versus non-monocytic cell line
[2] = tested on: phosphorylation of MAPKAP-2 in HUT 78 cells; assay: p38 MAP kinase cellular assay: inhibition of phosphorylation of MAPKAP-2 in HUT 78 cells; type: cell-based; settings: for Ratio IC50s in HUT 78 to U937 cells: HUT 78 IC50 / U937 IC50; for IC50: Homo sapiens, HuT78, Table 3, HUT 78 non-monocytic cell line
Description: (§1) U937 or HUT78 cells were plated in RPMI 1640, and were incubated at 37° C., 5% CO2 for 18 hours. 10 mM stocks of compounds were diluted media/0.1% DMSO to give a log or semi-log dilution series. The wells for ‘no treatment’ and ‘anisomycin’ were treated with 0.1% DMSO only. The cells were incubated at 37° C., 5% CO2 for a further 4 hours. Anisomycin was added to all wells except ‘no treatment’ at a final concentration of 10 μM. The cells were incubated at 37° C., 5% CO2 for 30 minutes before harvest. Plates were stood on ice whilst harvesting, and all following steps were carried out at 4° C. The cells were pelleted at 1000 rpm for 10 minutes at 4° C., the media aspirated, and the pellet washed with cold PBS. The pellets were lysed in 120 μl of SDS lysis buffer (62.5 mM Tris, pH 6.8, 2% SDS, 10% glycerol, 50 mM DTT, with protease inhibitors and phosphatase inhibitors added according to the manufacturer's recommendations). After 30 minutes on ice, the samples were sonicated for 5 seconds before centrifugation at 13,000 rpm 4° C. for 10 minutes to remove cell debris. 10 μl of the resulting gel samples were loaded per lane on NOVEX 4-12% Bis-Tris MOPS gels. Membranes from western transfer of gels were blotted with anti-phospho MAPKAP2, anti-phospho HSP27 and anti GAPDH according to the manufacturer's instructions. Signal was visualised using HRP-linked anti-rabbit or anti-mouse antibodies, ECL reagent and ECL film. IC50 values for the various compounds were visualised from the resulting photographic images, using both band-shift and signal intensity.

[3] = molecular target: T1, p38 MAP Kinase a (Homo sapiens, UniProt Q16539); assay: p38 MAP Kinase activity, radiometric filter-binding assay (Upstate); type: biochemical; settings: IC50 range; read-out: Inhibitor activity versus p38 MAPKa
T1 construct: purchased Upstate (Dundee UK)
T1 sequence (Q16539 whole entry): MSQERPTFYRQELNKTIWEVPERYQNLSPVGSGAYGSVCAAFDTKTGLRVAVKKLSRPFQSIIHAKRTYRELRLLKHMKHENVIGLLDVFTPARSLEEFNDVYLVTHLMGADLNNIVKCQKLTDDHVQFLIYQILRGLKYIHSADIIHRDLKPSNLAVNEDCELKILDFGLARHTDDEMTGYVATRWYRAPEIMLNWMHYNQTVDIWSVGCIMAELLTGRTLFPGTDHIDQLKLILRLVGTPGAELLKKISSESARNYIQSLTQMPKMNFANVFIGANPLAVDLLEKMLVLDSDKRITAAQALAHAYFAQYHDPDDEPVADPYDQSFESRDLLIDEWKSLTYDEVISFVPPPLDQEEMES
Description: The ability of compounds to inhibit p38 MAP a Kinase activity was measured in an assay performed by Upstate (Dundee UK). In a final reaction volume of 25 μL, p38 MAP Kinase a (5-10 mU) is incubated with 25 mM Tris pH 7.5, 0.002 mMEGTA, 0.33 mg/mL myelin basic protein, 10 mM MgAcetate and [g-33p-ATP] (specific activity approx. 500 cpm/pmol, concentration as required). The reaction is initiated by the addition of the MgATP mix. After incubation for 40 minutes at room temperature, the reaction is stopped by the addition of 5 μL of a 3% phosphoric acid solution. 10 μL of the reaction is then spotted onto a P30 filtermat and washed three times for 5 minutes in 75 mM phosphoric acid and once in methanol prior to drying and scintillation counting.
Duplicate data points are generated from a 1/3 log dilution series of a stock solution in DMSO. Nine dilutions steps are made from a top concentration of 10 μM and a ‘no compound’ blank is included. The standard radiometric filter-binding assay is performed at an ATP concentration at, or close to, the Km. Data from scintillation counts are collected and subjected to free-fit analysis by Prism software. From the curve generated, the concentration giving 50% inhibition is determined and reported.

[4] = tested on: phosphorylation of MAPKAP-2 in U937 cells; assay: p38 MAP kinase cellular assay: inhibition of phosphorylation of MAPKAP-2 in U937 cells; type: cell-based; settings: for pIC50 / IC50: Homo sapiens, U-937; for pIC50: Table 2, read-out: Inhibition of phosphorylation of MAPKAP-2 in U937 cells (IC50); for IC50: Table 3, U937 monocyte cell line, read-out: Inhibition of phosphorylation of MAPKAP-2 in U937 cells (IC50, nM) (monocyte cell line); for Ratio cell IC50s to enzyme IC50: U937 cell IC50 / P38 enzyme IC50
Description: as §1

[5] = tested on: THP-1 TNFα release; assay: LPS-stimulation of THP-1 cells, TNF-α release (ELISA); type: cell-based; settings: Homo sapiens; LPS-stimulated THP-1 cells, IC50 range; read-out: Inhibitor activity versus THP-1 TNFα release
Description: THP-1 cells were plated in 100 μl at a density of 4×10^4 cells/well in V-bottomed 96 well tissue culture treated plates and incubated at 37° C. in 5% CO2 for 16 hours. 2 hours after the addition of the inhibitor in 100 μl of tissue culture media, the cells were stimulated with LPS (E. coli strain 005:B5, Sigma) at a final concentration of 1 μg/ml and incubated at 37° C. in 5% CO2 for 6 hours. TNF-α levels were measured from cell-free supernatants by sandwich ELISA (R&D Systems #QTA00B).

[6] = tested on: human whole blood TNFα release; assay: LPS-stimulation of human whole blood, TNF-α release (ELISA); type: cell-based; settings: LPS-stimulated human whole blood, IC50 range; read-out: Inhibitor activity versus human whole blood TNFα release
Description: Whole blood was taken by venous puncture using heparinised vacutainers (Becton Dickinson) and diluted in an equal volume of RPMI1640 tissue culture media (Sigma). 100 μl was plated in V-bottomed 96 well tissue culture treated plates. 2 hours after the addition of the inhibitor in 100 μl of RPMI1640 media, the blood was stimulated with LPS (E coli strain 005:B5, Sigma) at a final concentration of 100 ng/ml and incubated at 37° C. in 5% CO2 for 6 hours. TNF-α levels were measured from cell-free supernatants by sandwich ELISA (R&D Systems #QTA00B).

Row | pIC50 [3] | pIC50 [5] | pIC50 [6] | SMILES | other results
1 | > 7.00 | > 7.00 | 6.00 to 7.00 | CC(C)(NCCc1ccc(-n2c(N)c(C(=O)c3ccc(F)cc3F)ccc2=O)cc1)C(=O)OC1CCCC1 [Example 1, Cyclopentyl N-(2-{4-[6-amino-5-(2,4-difluorobenzoyl)-2-oxopyridin-1(2H)-yl]phenyl}ethyl)-2-methylalaninate] | Accumulation of the acid in cells (in words) [1]: only accumulates in the monocytic cell line; Ratio IC50s in HUT 78 to U937 cells [2]: 100; IC50 [2]: 1000 nM; pIC50 ([4]; U937 cells): 8.00; IC50 [4]: 10 nM; Ratio cell IC50s to enzyme IC50 [4]: 0.2; Potency in cells relative to the parent compound lacking the esterase motif ([4]; U937 cells): 30 times
2 |  |  |  | Nc1c(C(=O)c2ccc(F)cc2F)ccc(=O)n1-c1ccccc1 [Parent Compound I, reference compound] | Ratio IC50s in HUT 78 to U937 cells [2]: 1.5; Ratio IC50s in HUT 78 to U937 cells ([2]; listed as compound I): equipotent; IC50 [2]: 450 nM; pIC50 ([4]; U937 cells): 6.52; IC50 [4]: 300 nM; Ratio cell IC50s to enzyme IC50 [4]: 6
3 | 6.00 to 7.00 | 6.00 to 7.00 |  | CC[C@](C)(NCCc1ccc(-n2c(N)c(C(=O)c3ccc(F)cc3F)ccc2=O)cc1)C(=O)OC(C)(C)C [Example 6, tert-butyl N-(2-{4-[6-amino-5-(2,4-difluorobenzoyl)-2-oxopyridin-1(2H)-yl]phenyl}ethyl)-L-isovalinate] | 
4 | 6.00 to 7.00 |  |  | CC(C)(NC(=O)Cc1ccc(-n2c(N)c(C(=O)c3ccc(F)cc3F)ccc2=O)cc1)C(=O)O [Example 13] | 
5 | > 7.00 | > 7.00 | < 6.00 | CC(C)(C)OC(=O)C(C)(C)NCCCOc1cc(F)c(-n2c(N)c(C(=O)c3ccc(F)cc3F)ccc2=O)c(F)c1 [Example 10, tert-butyl N-(3-{4-[6-amino-5-(2,4-difluorobenzoyl)-2-oxopyridin-1(2H)-yl]-3,5-difluorophenoxy}propyl)-2-methylalaninate] | 
6 |  | > 7.00 | < 6.00 | CC(C)(NCCc1ccc(-n2c(N)c(C(=O)c3ccc(F)cc3F)ccc2=O)cc1)C(=O)OC1CC2CCC1C2 (centres unmarked) [Example 8, bicyclo[2.2.1]hept-2-yl N-(2-{4-[6-amino-5-(2,4-difluorobenzoyl)-2-oxopyridin-1(2H)-yl]phenyl}ethyl)-2-methylalaninate] | 
7 | > 7.00 | > 7.00 | > 7.00 | CC(C)(NCCc1cc(F)c(-n2c(N)c(C(=O)c3ccc(F)cc3F)ccc2=O)c(F)c1)C(=O)OC1CCCC1 [Example 2, Cyclopentyl N-(2-{4-[6-amino-5-(2,4-difluorobenzoyl)-2-oxopyridin-1(2H)-yl]-3,5-difluorophenyl}ethyl)-2-methylalaninate] | 
8 | > 7.00 | > 7.00 | < 6.00 | Nc1c(C(=O)c2ccc(F)cc2F)ccc(=O)n1-c1ccc(CCNC2(C(=O)OC3CCCC3)CCCC2)cc1 [Example 4, Cyclopentyl 1-[(2-{4-[6-amino-5-(2,4-difluorobenzoyl)-2-oxopyridin-1(2H)-yl]phenyl}ethyl)amino]cyclopentanecarboxylate] | 
9 | > 7.00 |  |  | CC(C)(NCCCOc1cc(F)c(-n2c(N)c(C(=O)c3ccc(F)cc3F)ccc2=O)c(F)c1)C(=O)O [Example 16, N-(3-{4-[6-amino-5-(2,4-difluorobenzoyl)-2-oxopyridin-1(2H)-yl]-3,5-difluorophenoxy}propyl)-2-methylalanine] | 
10 | > 7.00 | 6.00 to 7.00 | < 6.00 | CC(C)(NC(=O)Cc1ccc(-n2c(N)c(C(=O)c3ccc(F)cc3F)ccc2=O)cc1)C(=O)OC1CCCC1 [Example 3, Cyclopentyl N-({4-[6-amino-5-(2,4-difluorobenzoyl)-2-oxopyridin-1(2H)-yl]phenyl}acetyl)-2-methylalaninate] | 
11 | > 7.00 |  |  | CC[C@](C)(NCCc1ccc(-n2c(N)c(C(=O)c3ccc(F)cc3F)ccc2=O)cc1)C(=O)O [Example 14, N-(2-{4-[6-amino-5-(2,4-difluorobenzoyl)-2-oxopyridin-1(2H)-yl]phenyl}ethyl)-L-isovaline] | 
12 | 6.00 to 7.00 |  |  | Nc1c(C(=O)c2ccc(F)cc2F)ccc(=O)n1-c1ccc(CCNC2(C(=O)O)CCCC2)cc1 [Example 15, 1-[(2-{4-[6-amino-5-(2,4-difluorobenzoyl)-2-oxopyridin-1(2H)-yl]phenyl}ethyl)amino]cyclopentanecarboxylic acid] | 
13 | > 7.00 | > 7.00 | 6.00 to 7.00 | CC(C)(NCCCOc1cc(F)c(-n2c(N)c(C(=O)c3ccc(F)cc3F)ccc2=O)c(F)c1)C(=O)OC1CCCC1 [Example 9, Cyclopentyl N-(3-{4-[6-amino-5-(2,4-difluorobenzoyl)-2-oxopyridin-1(2H)-yl]-3,5-difluorophenoxy}propyl)-2-methylalaninate] | 
14 | 6.00 to 7.00 | > 7.00 | < 6.00 | CC[C@](C)(NCCc1ccc(-n2c(N)c(C(=O)c3ccc(F)cc3F)ccc2=O)cc1)C(=O)OC1CCCC1 [Example 5, Cyclopentyl N-(2-{4-[6-amino-5-(2,4-difluorobenzoyl)-2-oxopyridin-1(2H)-yl]phenyl}ethyl)-L-isovalinate] | 
15 | > 7.00 |  |  | CC(C)(NCCc1cc(F)c(-n2c(N)c(C(=O)c3ccc(F)cc3F)ccc2=O)c(F)c1)C(=O)O [Example 12, N-(2-{4-[6-amino-5-(2,4-difluorobenzoyl)-2-oxopyridin-1(2H)-yl]-3,5-difluorophenyl}ethyl)-2-methylalanine] | 
16 | 6.00 to 7.00 | > 7.00 | < 6.00 | CC(C)(NCCc1ccc(-n2c(N)c(C(=O)c3ccc(F)cc3F)ccc2=O)cc1)C(=O)OC1Cc2ccccc2C1 [Example 7, 2,3-dihydro-1H-inden-2-yl N-(2-{4-[6-amino-5-(2,4-difluorobenzoyl)-2-oxopyridin-1(2H)-yl]phenyl}ethyl)-2-methylalaninate] | 
17 | > 7.00 |  |  | CC(C)(NCCc1ccc(-n2c(N)c(C(=O)c3ccc(F)cc3F)ccc2=O)cc1)C(=O)O [Example 11, N-(2-{4-[6-amino-5-(2,4-difluorobenzoyl)-2-oxopyridin-1(2H)yl]phenyl}ethyl)-2-methylalanine] | 
